From article PMC6826779, “Bis-allylic Deuterated DHA Alleviates Oxidative Stress in Retinal Epithelial Cells” (Antioxidants, 2019) come the findings set out here.

Molecules are shown by their SMILES.

For test [1], the target named is T1, 15-sLOX (Glycine max, UniProt P08170).
T1 sequence (P08170 1-839): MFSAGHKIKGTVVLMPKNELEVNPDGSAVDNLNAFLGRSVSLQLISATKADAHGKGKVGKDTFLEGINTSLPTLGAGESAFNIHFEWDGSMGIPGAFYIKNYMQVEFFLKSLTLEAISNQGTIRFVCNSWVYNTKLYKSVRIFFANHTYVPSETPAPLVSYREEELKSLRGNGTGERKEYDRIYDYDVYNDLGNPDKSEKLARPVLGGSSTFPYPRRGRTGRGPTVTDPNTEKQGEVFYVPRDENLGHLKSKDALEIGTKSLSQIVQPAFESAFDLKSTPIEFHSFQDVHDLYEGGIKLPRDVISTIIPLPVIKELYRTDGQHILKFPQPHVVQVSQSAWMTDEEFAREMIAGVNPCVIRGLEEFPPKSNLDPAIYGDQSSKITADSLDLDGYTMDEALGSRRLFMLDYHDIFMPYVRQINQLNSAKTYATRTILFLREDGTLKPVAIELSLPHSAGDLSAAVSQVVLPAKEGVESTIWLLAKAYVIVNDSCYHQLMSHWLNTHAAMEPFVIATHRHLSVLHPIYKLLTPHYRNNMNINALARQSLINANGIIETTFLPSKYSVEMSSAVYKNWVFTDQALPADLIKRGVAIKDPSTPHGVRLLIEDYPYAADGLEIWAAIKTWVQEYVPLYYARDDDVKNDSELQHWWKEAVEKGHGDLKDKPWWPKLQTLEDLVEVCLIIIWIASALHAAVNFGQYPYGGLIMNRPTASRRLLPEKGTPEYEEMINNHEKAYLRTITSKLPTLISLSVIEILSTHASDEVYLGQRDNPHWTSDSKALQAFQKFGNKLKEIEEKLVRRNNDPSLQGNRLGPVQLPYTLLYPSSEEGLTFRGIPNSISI
Description: Kinetics parameters of 15s-LOX (UV 270 nm, Michaelis-Menten). The format is biochemical, Glycine max (soybean). The following applies: monitored at 270 nm. Here is the method:
The activity of 15-sLOX was monitored on a Beckman Coulter DU730 Life Sciences UV-visible spectrometer at a wavelength of 270 nm monitoring the conjugated triene structure in the dihydroxylation products. For the measurements a reaction mixture of DHA or deuterated DHA (0.02 mM; 0.04 mM; 0.1 mM and 0.2 mM) was prepared in 750 µL sodium borate buffer (50 mM, pH 9) by ultrasonification for 10 s. The reaction was subsequently initiated by the addition of 10 µL 15-sLOX (4 mg/mL) to make a total volume of 760 µL in a Hellma CEL2056 quartz cuvette with 1 cm path length (20 °C). The initial reaction rates (V(0)), derived from the recorded UV-absorbance using the law of Lambert-Beer (molar extinction coefficient = 40,000), were plotted against the respective DHA concentrations and fitted to Michaelis-Menten kinetics in GraphPad Prism 7.0. All V(0) values were determined in triplicate and the average of three independent experiments was plotted against the substrate concentrations to yield Michaelis-Menten kinetics.

For test [2], the target named is T1, 15-sLOX. Description: LC-MS/MS of 15s-LOX oxidized samples (product profile). The format is biochemical, Glycine max (soybean). The note with it: 0.1 mM substrate, 30 min reaction, room temperature. Here is the method: In order to gain insights on the nature of the produced metabolites, LC-MS/MS analysis of the reaction products were carried out. To this end, the respective DHA variants (0.1 mM) were incubated in a 2 mL eppendorf tube with 10 µL 15-sLOX (4 mg/mL) in sodium borate buffer (50 mM, pH 9) for 30 min at room temperature and the reaction quenched by the addition of cold MeOH (760 µL). The hydroperoxides were reduced with the addition of aq. SnCl2 (50 µL, 5 mg/mL) and subsequently the mixture was centrifuged (16,100 ×g for 5 min). Water (2 mL) was added to the supernatant, followed by the dropwise addition of glacial acetic acid (40 µL). The products were purified by SPE using SepPak 200 mg C18 cartridges (3CC), according to published protocols. The methyl formate eluates were evaporated to dryness, dissolved in MeOH (0.5 mL) and stored at −80 °C until analysis. The resulting solution was diluted 1000 times with MeOH for LC-MS/MS measurements. To 120 µL water, 72 µL of MeOH, 4 µL of the diluted solution and 4 µL of an internal standard (15-HETE-d8, Leukotriene LTB4-d4 and DHA-d5) was added. The samples were loaded in a SIL-30AC autosampler and the analytes separated on a Kinetex 1.7 µm C18 100Å, 50 × 2.1 mm LC column as described. The detection of DHA metabolites was performed in selected ion monitoring mode using several traces in order to take the eventual loss of a deuterium atom into account. The following traces were used: m/z 327.2, 343.2, 359.2 and 375.2 for DHA and its metabolites, m/z 327.2, 328.2, 329.2, 344.2, 345.2, 360.2, 361.2, 376.2, 377.2 for D2-DHA, m/z 331.2, 345.3, 346.2, 361.2, 362.3, 363.2, 377.2, 378.2 and 379.2 for D4-DHA and m/z 337.2, 352.2, 353.2, 367.2, 368.2, 369.2, 383.2, 384.2 and 385.2 for D10-DHA. Tandem mass spectra were recorded as product ion scans. Quantification of the metabolites was done by calculating the area ratio between the analyte and the internal standard (DHA-d5 for non-hydroxylated, 15-HETE-d8 for mono-hydroxylated and LTB4-d4 for di-hydroxylated derivatives) using Multiquant version 3.0.2.

For `[2H]C([2H])(/C=C\C/C=C\C/C=C\C/C=C\C/C=C\CC)/C=C\CCC(=O)O` [D2-DHA, (6,6-D2)-DHA], the “15s-LOX activity for the double hydroxylation product” value (“15s-LOX activity” for short) at 15-sLOX [1] is given as “no substantial differences”. Moreover, the “pre-dominant product of 15-sLOX oxidation (LC-MS)” value (shortened to “pre-dominant product”) on 15-sLOX [2] is reported as “double oxygenation product 10S,17S-diHDHA”.

`[2H]C([2H])(C=CCC=CCC=CCC=CCC)C=CC([2H])([2H])C=CCCC(=O)O` [D4-DHA, (6,6,9,9-D4)-DHA]: on 15-sLOX [1], the “15s-LOX activity” value is “no substantial differences”. Moreover, the “pre-dominant product” value on 15-sLOX [2] was “double oxygenation product 10S,17S-diHDHA”.

With `CC/C=C\C/C=C\C/C=C\C/C=C\C/C=C\C/C=C\CCC(=O)O` [Natural DHA, docosahexaenoic acid, reference compound], the “15s-LOX activity” value at 15-sLOX [1] is recorded as “no substantial differences”. The “pre-dominant product” value on 15-sLOX [2] was “double oxygenation product 10S,17S-diHDHA”.
